# According to patent US12581252B2, “Substituted pyrrolo[3,4-b]pyridines as PI3K-α inhibitors” (Relay Therapeutics, Inc., priority 2020, dated 2026):
# pIC50: −log10 of the molar value.
# Target: H1047R PIK3CA enzyme (Homo sapiens, UniProt P42336, H1047R)
# Assay: ADP-Glo Biochemical PIK3CA Kinase Assay
# H1047R PIK3CA enzyme, sequence (P42336 whole entry H1047R): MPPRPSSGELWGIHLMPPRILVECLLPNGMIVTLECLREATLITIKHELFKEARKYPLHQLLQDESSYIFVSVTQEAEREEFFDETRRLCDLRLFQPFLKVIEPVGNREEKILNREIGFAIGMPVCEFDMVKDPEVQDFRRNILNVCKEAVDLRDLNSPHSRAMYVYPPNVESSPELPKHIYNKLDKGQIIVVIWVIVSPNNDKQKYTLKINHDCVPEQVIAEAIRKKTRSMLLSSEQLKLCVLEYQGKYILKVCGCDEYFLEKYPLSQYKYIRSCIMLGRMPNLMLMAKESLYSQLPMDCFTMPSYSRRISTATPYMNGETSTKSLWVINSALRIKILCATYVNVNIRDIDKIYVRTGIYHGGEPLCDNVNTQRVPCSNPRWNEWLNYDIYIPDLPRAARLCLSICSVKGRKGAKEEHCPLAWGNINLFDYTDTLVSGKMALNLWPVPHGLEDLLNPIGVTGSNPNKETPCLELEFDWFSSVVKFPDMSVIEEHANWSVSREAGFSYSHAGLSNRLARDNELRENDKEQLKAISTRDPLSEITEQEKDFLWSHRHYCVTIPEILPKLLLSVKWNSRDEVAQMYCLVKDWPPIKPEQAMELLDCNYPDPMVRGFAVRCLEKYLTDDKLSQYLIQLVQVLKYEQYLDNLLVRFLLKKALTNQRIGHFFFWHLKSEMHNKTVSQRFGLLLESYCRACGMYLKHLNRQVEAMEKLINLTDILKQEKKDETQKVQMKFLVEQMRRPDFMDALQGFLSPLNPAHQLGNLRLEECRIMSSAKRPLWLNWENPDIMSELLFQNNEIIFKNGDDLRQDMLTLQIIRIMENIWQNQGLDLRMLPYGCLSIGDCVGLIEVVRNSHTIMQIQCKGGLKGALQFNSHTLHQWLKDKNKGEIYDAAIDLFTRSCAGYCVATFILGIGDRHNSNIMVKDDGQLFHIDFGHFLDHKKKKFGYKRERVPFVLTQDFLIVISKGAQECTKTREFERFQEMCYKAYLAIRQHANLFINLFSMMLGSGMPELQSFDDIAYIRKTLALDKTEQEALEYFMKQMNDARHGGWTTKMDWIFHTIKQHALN
# H1047R PIK3CA enzyme, sequence (P27986 whole entry partner): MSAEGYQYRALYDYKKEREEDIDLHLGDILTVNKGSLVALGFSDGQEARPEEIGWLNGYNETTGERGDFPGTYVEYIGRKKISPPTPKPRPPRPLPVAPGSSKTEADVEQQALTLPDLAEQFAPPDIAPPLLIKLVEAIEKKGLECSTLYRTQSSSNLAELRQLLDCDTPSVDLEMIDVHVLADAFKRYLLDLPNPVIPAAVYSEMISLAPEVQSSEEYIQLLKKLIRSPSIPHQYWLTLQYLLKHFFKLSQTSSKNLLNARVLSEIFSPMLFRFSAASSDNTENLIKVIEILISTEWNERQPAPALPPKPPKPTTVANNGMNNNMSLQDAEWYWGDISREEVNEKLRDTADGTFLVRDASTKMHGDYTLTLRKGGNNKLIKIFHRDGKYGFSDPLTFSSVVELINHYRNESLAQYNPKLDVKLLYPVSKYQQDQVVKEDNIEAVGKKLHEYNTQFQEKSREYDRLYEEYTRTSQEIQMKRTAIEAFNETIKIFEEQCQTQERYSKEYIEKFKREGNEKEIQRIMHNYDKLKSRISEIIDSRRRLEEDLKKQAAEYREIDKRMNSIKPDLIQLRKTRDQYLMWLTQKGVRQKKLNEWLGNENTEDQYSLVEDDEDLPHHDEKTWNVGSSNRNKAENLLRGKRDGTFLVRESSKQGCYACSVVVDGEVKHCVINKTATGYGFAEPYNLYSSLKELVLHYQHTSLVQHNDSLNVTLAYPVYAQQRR
row,SMILES,pIC50
1,CC1(C2NC(=O)c3cccc(NC(=O)c4cc(F)cc(C(F)(F)F)c4)c32)CC1 (racemic) [Compound I-1791],4.00 to 5.00
2,O=C(Nc1cc(Br)cc2c1C(c1cc(F)ccc1Cl)NC2=O)c1ccc(F)c(OC(F)(F)F)c1 (centres unmarked) [Compound I-516],6.30 to 7.00
3,"O=C1NC[C@H](c2cc(NC(=O)c3cc(F)cc(C(F)(F)F)c3)c3c(c2)C(=O)N[C@H]3c2cc(F)ccc2Cl)O1 (single isomer, unassigned) [Compound I-1559]",≥ 7.00
4,O=C(Nc1cc(Br)cc2c1C(c1cc(F)ccc1Cl)NC2=O)NC12CC3CC(CC(C3)C1)C2 (centres unmarked) [Compound I-1257],6.30 to 7.00
5,Cc1c(-c2cc(NC(=O)c3cc(F)cc(C(F)(F)F)c3)c3c(c2)C(=O)NC3c2cc(F)ccc2Cl)ccc2ncnn12 (centres unmarked) [Compound I-1825],≥ 7.00
6,O=C(Nc1cc(-c2ccc3c(c2)OCO3)cc2c1C(c1cc(F)ccc1Cl)NC2=O)c1cc(F)cc(C(F)(F)F)c1 (centres unmarked) [Compound I-741],≥ 7.00
7,N#Cc1cc(-c2ccc(=O)[nH]c2)cc2c1C(c1cc(F)ccc1Cl)NC2=O (centres unmarked) [Compound I-2089],4.00 to 5.00
8,CS(=O)(=O)n1cc(-c2cc(NC(=O)c3cc(F)cc(C(F)(F)F)c3)c3c(c2)C(=O)N[C@@H]3c2cc(F)ccc2Cl)cn1 [Compound I-1995],6.00 to 6.30
9,O=C(Nc1cc(C[n+]2ccccc2)cc2c1[C@H](c1cc(F)ccc1Cl)NC2=O)c1cc(F)cc(C(F)(F)F)c1 (racemic) [Compound I-1321],≥ 7.00
10,O=C1N[C@H](c2cc(F)ccc2Cl)c2c(NC(=O)[C@H]3CC[C@@H](C(F)(F)F)C3)cccc21 [Compound I-2083],4.00 to 5.00
11,CC(=O)NCc1cc(NC(=O)c2cc(F)cc(C(F)(F)F)c2)c2c(c1)C(=O)NC2c1cc(F)ccc1Cl (centres unmarked) [Compound I-207],6.30 to 7.00
12,Cc1ccccc1-n1[nH]c(=O)c2cccc(NC(=O)c3cc(F)cc(C(F)(F)F)c3)c21 [Compound I-178],6.00 to 6.30
13,COc1ccc(C(=O)Nc2cc(Br)cc3c2C(c2cc(F)ccc2Cl)NC3=O)cc1 (centres unmarked) [Compound I-465],4.00 to 5.00
14,"N#CCc1cc(NC(=O)N2C[C@@](O)(C(F)F)c3cc(F)ccc32)c2c(c1)C(=O)N[C@@H]2c1cc(F)ccc1Cl (single isomer, unassigned) [Compound I-2600]",6.00 to 6.30
15,O=C(Nc1cc(Br)cc2c1C(c1cc(F)ccc1Cl)NC2=O)c1ccc(Cl)cc1 (centres unmarked) [Compound I-527],5.00 to 6.00
16,NC(=O)CC(=O)Nc1cc(-c2ccc3ncnn3c2)cc2c1C(c1cc(F)ccc1Cl)NC2=O (centres unmarked) [Compound I-1983],4.00 to 5.00
17,CC(C)(O)CN(CC(C)(C)O)c1cc(NC(=O)c2cc(F)cc(C(F)(F)F)c2)c2c(c1)C(=O)NC2c1cc(F)ccc1Cl (centres unmarked) [Compound I-848],5.00 to 6.00
18,N#Cc1cnc2cc(F)c(-c3cc(NC(=O)c4cc(F)cc(C(F)(F)F)c4)c4c(c3)C(=O)N[C@@H]4c3cc(F)ccc3Cl)cn12 [Compound I-1883],5.00 to 6.00
19,CC(c1nn[nH]c1C(=O)Nc1cccc2c1C(c1cc(F)ccc1Cl)NC2=O)C(F)(F)F (mixture of isomers) [Compound I-2180],4.00 to 5.00
20,O=C(Nc1cc(-c2ccc3ncnn3c2)cc2c1[C@@H](c1cc(F)cc(F)c1Cl)NC2=O)c1cc(F)cc(C(F)(F)F)c1 (stereo in doubt) [Compound I-1063],4.00 to 5.00
21,COc1ccc2scc(C(=O)Nc3cccc4c3C(c3ccccc3C)NC4=O)c2c1 (centres unmarked) [Compound I-42],5.00 to 6.00

row,SMILES,pIC50
1,O=C(Nc1cccc2c1C(C1(O)CCCCC1)NC2=O)c1cc(F)cc(C(F)(F)F)c1 (centres unmarked) [Compound I-1967],4.00 to 5.00
2,O=C(Nc1cc(F)cc2c1C(c1cc(F)ccc1Cl)NC2=O)c1cc(F)cc(C(F)(F)F)c1 (centres unmarked) [Compound I-641],≥ 7.00
3,O=C(Nc1cc(-c2ccnn2C2COC2)cc2c1C(c1cc(F)ccc1Cl)NC2=O)c1cc(F)cc(C(F)(F)F)c1 (centres unmarked) [Compound I-1037],≥ 7.00
4,Cn1cc(C(=O)Nc2cccc3c2CNC3=O)c2ccccc21 [Compound I-403],4.00 to 5.00
5,CC(=O)N1CCCCC1C(=O)Nc1cc(-c2ccc3ncnn3c2)cc2c1C(c1cc(F)ccc1Cl)NC2=O (mixture of isomers) [Compound I-1804],4.00 to 5.00
6,Cn1cc2c(C(=O)Nc3cccc4c3C(c3cc(F)ccc3Cl)NC4=O)cc(F)cc2n1 (centres unmarked) [Compound I-870],4.00 to 5.00
7,Cn1nccc1-c1cc(NC(=O)c2cc(F)cc(C(F)(F)F)c2)c2c(c1)C(=O)N[C@@H]2c1cc(F)ccc1Cl [Compound I-1137],5.00 to 6.00
8,O=C(Nc1cc(C2CNCCS2(=O)=O)cc2c1C(c1cc(F)ccc1Cl)NC2=O)c1cc(F)cc(C(F)(F)F)c1 (racemic) [Compound I-1255],≥ 7.00
9,O=C(Nc1cc(Br)cc2c1C(c1cccc(F)c1F)NC2=O)c1cc(F)cc(C(F)(F)F)c1 (centres unmarked) [Compound I-684],5.00 to 6.00
10,Cc1ccccc1C1NC(=O)c2cccc(NC(=O)c3ccsn3)c21 (centres unmarked) [Compound I-451],4.00 to 5.00
11,"O=C(Nc1cccc2c1[C@H](C1CC1)NC2=O)c1cc(F)cc(C(F)(F)F)c1 (single isomer, unassigned) [Compound I-2221]",4.00 to 5.00
12,COc1ccc(-c2cc(NC(=O)c3cc(F)cc(C(F)(F)F)c3)c3c(c2)C(=O)NC3c2cc(F)ccc2Cl)cn1 (centres unmarked) [Compound I-705],≥ 7.00
13,"O=C1NC(c2cc(F)ccc2Cl)c2c(NC3CCCNC3)cc(-c3ccc4ncnn4c3)cc21 (centres unmarked) [Compound I-2158, 6-([1,2,4]triazolo[1,5-a]pyridin-6-yl)-3-(2-chloro-5-fluorophenyl)-4-(piperidin-3-ylamino)isoindolin-1-one]",4.00 to 5.00
14,O=C(Nc1cc(-c2ccc3ncnn3c2)cc2c1[C@@H](c1cc(F)ccc1Cl)NC2=O)c1cc(F)cc(OC(F)(F)F)c1 (stereo in doubt) [Compound I-1117],5.00 to 6.00
15,Cn1nccc1Cc1cc(NC(=O)c2cc(F)cc(C(F)(F)F)c2)c2c(c1)C(=O)NC2c1cc(F)ccc1Cl (centres unmarked) [Compound I-1293],≥ 7.00
16,CC(C)(O)Cc1cc(NC(=O)c2cc(F)cc(Cl)c2)c2c(c1)C(=O)NC2c1cc(F)ccc1Cl (centres unmarked) [Compound I-645],≥ 7.00
17,Cc1ccccc1C1NC(=O)c2c(N(C)C)ncc(NC(=O)c3cc(F)cc(C(F)(F)F)c3)c21 (centres unmarked) [Compound I-243],6.00 to 6.30
18,CC(C)(C#N)n1cc(-c2cc(NC(=O)c3cc(F)cc(C(F)(F)F)c3)c3c(c2)C(=O)N[C@@H]3c2cc(F)ccc2Cl)cn1 [Compound I-1660],6.00 to 6.30
19,"Cc1nccn1-c1cc(NC(=O)N2C[C@@](O)(C(F)(F)F)c3cc(F)ccc32)c2c(c1)C(=O)N[C@H]2c1cc(F)ccc1Cl (single isomer, unassigned) [Compound I-2663]",5.00 to 6.00
20,CNC(=O)c1cc(NC(=O)c2nsc3ccccc23)c2c(c1)C(=O)NC2c1ccccc1C (centres unmarked) [Compound I-123],≥ 7.00
21,Cc1ccccc1C1NC(=O)c2cccc(NC(=O)c3cc(C(F)(F)F)ccn3)c21 (centres unmarked) [Compound I-337],4.00 to 5.00

row,SMILES,pIC50
1,O=C(Nc1cc(-c2cccc3cccnc23)cc2c1C(c1cc(F)ccc1Cl)NC2=O)c1cc(F)cc(C(F)(F)F)c1 (centres unmarked) [Compound I-1045],≥ 7.00
2,Nc1ncncc1-c1cc(NC(=O)c2cc(F)cc(C(F)(F)F)c2)c2c(c1)C(=O)NC2c1cc(F)ccc1Cl (centres unmarked) [Compound I-1106],≥ 7.00
3,C=CCCNC(=O)c1cc(NC(=O)c2cc(F)cc(C(F)(F)F)c2)c2c(c1)C(=O)NC2c1cc(F)ccc1Cl (centres unmarked) [Compound I-1422],≥ 7.00
4,N#Cc1cnccc1-c1cc(NC(=O)c2cc(F)cc(C(F)(F)F)c2)c2c(c1)C(=O)N[C@@H]2c1cc(F)ccc1Cl (stereo in doubt) [Compound I-1231],6.00 to 6.30
5,O=C(Nc1cc(-c2cc(F)n3ncnc3c2)cc2c1[C@H](c1cc(F)ccc1Cl)NC2=O)c1cc(F)cc(C(F)(F)F)c1 [Compound I-1927],≥ 7.00
6,O=C1NC(c2cc(F)ccc2Cl)c2c(NC(=O)c3cncc4ccccc34)cc(Br)cc21 (centres unmarked) [Compound I-673],5.00 to 6.00
7,"O=C1N[C@@H](c2cc(F)ccc2Cl)c2c(NC(=O)[C@@H]3CCC[C@H](OC(F)(F)F)C3)cccc21 (single isomer, unassigned) [Compound I-2214]",4.00 to 5.00
8,O=C(Nc1cc(-c2ccc3ccnn3c2)cc2c1C(c1cc(F)ccc1Cl)NC2=O)c1cc(F)cc(C(F)(F)F)c1 (centres unmarked) [Compound I-1499],≥ 7.00
9,O=C(Nc1cc(Br)cc2c1C(c1cc(F)ccc1Cl)NC2=O)c1cc(F)cc(C(F)F)c1 (centres unmarked) [Compound I-835],6.30 to 7.00
10,O=C(Nc1cc(Br)cc2c1C(c1cc(F)ccc1Cl)NC2=O)c1cc(F)cc2c1NCCC2 (centres unmarked) [Compound I-1385],6.00 to 6.30
11,O=C(Nc1cc(-c2cnn(C(F)F)c2)cc2c1C(c1cc(F)ccc1Cl)NC2=O)c1cc(F)cc(Cl)c1 (centres unmarked) [Compound I-1863],≥ 7.00
12,O=C(Nc1cc(-c2ccc3ncnn3c2)cc2c1[C@@H](c1cc(F)ccc1C(F)F)NC2=O)c1cc(F)cc(C(F)(F)F)c1 (stereo in doubt) [Compound I-1055],5.00 to 6.00
13,"N#CC1(COc2cc(NC(=O)N3C[C@H](O)c4cc(F)ccc43)c3c(c2)C(=O)N[C@H]3c2cc(F)ccc2Cl)CC1 (single isomer, unassigned) [Compound I-2553]",6.30 to 7.00
14,CC(=O)N1CC(Oc2cc(NC(=O)c3cc(F)cc(C(F)(F)F)c3)c3c(c2)C(=O)NC3c2cc(F)ccc2Cl)C1 (centres unmarked) [Compound I-1251],6.30 to 7.00
15,Cc1ccc(F)cc1C1NC(=O)c2cccc(NC(=O)c3cc(F)cc(C(F)(F)F)c3)c21 (centres unmarked) [Compound I-281],6.30 to 7.00
16,"C[C@H](O)c1cc(-c2ccc3ncnn3c2)cc2c1[C@H](c1cc(F)ccc1Cl)NC2=O (single isomer, unassigned) [Compound I-2229]",4.00 to 5.00
17,CCn1cc(-c2cc(NC(=O)c3cc(F)cc(C(F)(F)F)c3)c3c(c2)C(=O)N[C@H]3c2cc(F)ccc2Cl)ccc1=O [Compound I-704],≥ 7.00
18,O=C(Nc1cc(-c2ccc3ncc(C(F)F)n3c2)cc2c1C(c1cc(F)ccc1Cl)NC2=O)c1cc(F)cc(C(F)(F)F)c1 (centres unmarked) [Compound I-1866],≥ 7.00
19,Cn1ccnc1-c1cc(NC(=O)c2cc(F)cc(C(F)(F)F)c2)c2c(c1)C(=O)NC2c1cc(F)ccc1Cl (racemic) [Compound I-1193],6.30 to 7.00
20,"Nc1cc(NC(=O)N2C[C@H](O)c3cc(F)ccc32)c2c(c1)C(=O)N[C@@H]2c1cc(F)ccc1Cl (single isomer, unassigned) [Compound I-2412]",5.00 to 6.00
